Data on one compound can be found in US20110269790A1, “NOVEL THIENOPYRIDINES AS PHARMACOLOGICALLY ACTIVE AGENTS” (priority 2009, published 2011).

In one experiment the test system is IL-1β. Nature of the experiment: IL-1β in paw tissue and serum, collagen induced arthritis. In kind it is in vivo, rat. From the text:
It is believed that these proinflammatory cytokines help to propagate a local or systemic inflammatory process, and to induce biosynthesis and secretion of metalloproteinases (MMPs) and osteoclasts that critically contribute to degradation of extracellular matrix and erosion of bone respectively (Burger et al., 1998; Gravallese and Goldring, 2000; Smolen and Steiner, 2003).
On termination day blood samples were collected and serum was used for the estimation of Both TNF-α and IL-1β levels in FCA and Collagen induced studies. Both the parameters were determined using ELISA kits.

The subject of the next experiment is mice. Nature of the experiment: Adenosine mediated bronchoconstriction and lung inflammation in an allergic mouse model. In kind it is in vivo. More on the design: Total count: unit not given here. The following applies: BAL fluid cells; 100 mg/kg oral. Put shortly: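 Male mice sensitized i.p. with ragweed (days 1, 6), challenged with 0.5% ragweed aerosol twice daily for 3 days; 24 h later dosed orally (acacia suspension; theophylline 100 mg/kg), then challenged with adenosine (24 mg/ml) 2 h post-dose. Respiration recorded by kymograph under pentobarbitone; BAL total and differential cell counts.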

The subject of a further experiment is TNF-α. Briefly: TNF-α in rat paw tissue, FCA model (ELISA). To be noted: termination day. The format is in vivo. Here is the method:
(§1) Group I—Normal Control; Group II—Arthritic control; Group III—Arthritic rats administered with Synthetic compound BN-4; Group IV—arthritic rats administered with compound BN-14; Group V—arthritic rats administered with BN-16; Group VI—arthritic rats administered with standard drug indomethacin. Administration of test compounds and indomethacin started on the same day of adjuvant injection at the dose of 100 and 2.5 mg/kg respectively. The test and indomethacin doses continued up to 21 days in FCA induced model and 24 days in collagen induced model. During the study period the paw volumes were measured on 5th, 12th, 18th and 21 st days and the weight of the animals was also recorded at different time intervals. At each time point the percentage of inhibition of paw volume was calculated with reference to mean paw volume of control group In FCA model, animals were sacrificed on 21st day by cervical dislocation. Before sacrificing the animals, blood was collected and used for estimation of total leukocyte count, TNF-α and IL-1β.
In FCA induced study paw tissues were collected on termination day and estimated TNF-α and IL-1β levels for all the groups by ELISA method.
For orientation: In an ELISA, binding on a coated surface is turned into a signal by an enzyme label.

The test system of the next experiment is Wistar rats. Nature of the experiment: Freund's complete adjuvant (FCA) induced arthritis. The format is in vivo, rat. To be noted: BN compounds 100 mg/kg. The protocol:
Induction of Arthritis: Arthritis was induced by injecting Freund's complete adjuvant (FCA. Required quantity of FCA was weighed and suspension made with paraffin oil (DIFCO Laboratories) and administered at dose of 0.5 mg/rat in subplantar region of the right hind paw. After 7 days, a booster injection was given to all animals to hind paws.
Experimental Design Animals were divided into 6 groups of 6 rats each and were designated as:
as §1
Clinical Assessment of Adjuvant arthritis: Rats were examined for visual appearance of arthritis and the lesion of erythema and inflammation of periarticular tissues on 14th day, 18th day and on 21st day. Arthritis scoring scale as follows:
2=Mild swelling and erythema of the limb 3=Gross swelling and erythema of the limb 4=Gross deformity and inability to use the limb
The arthritis score of each rat was the sum of the scores of both hind limbs and maximum score was being 8 for each rat.

In another experiment the test system is nitric oxide. Nature of the experiment: Nitric oxide inhibition assay, sodium nitroprusside method. To be noted: Griess reagent, vs control. Background: Griess reagent forms a coloured azo dye with nitrite.
Setting [1] is: indomethacin 2.5 mg/kg daily, in mL (unit assumed).

Turning to `Nc1c2c(nc3sc4c(c13)CCC4)CCCCC2` [BN-16, 1,2,3,6,7,8,9,10-Octahydrocyclohepta[b]cyclopenta[4,5]thieno[3,2-e]pyridine-11-amine], the “Inhibition of IL-1β in paw tissues” value with IL-1β (collagen induced study, day 24, 100 mg/kg/day) was “moderate inhibition (p<0.05)”. Moreover, the “Reduction of IL-1β levels in serum” value with IL-1β (collagen study, vs arthritic control) is “more significantly (p<0.01) reduced”. Besides, in the experiment on mice, the “Differential count (%) Eosinophils” value was 12%, the “Differential count (%) Lymphocytes” value worked out at 90%, the “Differential count (%) Monocytes” value is 15% and the Total count amounted to 8. For the same compound, the “% Inhibition (TNF-α)” value with TNF-α is given as 37.42 ± 5.57%. In the experiment on Wistar rats (indomethacin 2.5 mg/kg daily), the “% Of inhibition, 5th Day” value is 23.95 ± 4.49 %; the “% Of inhibition, 12th Day” value was 39.11 ± 1.68 %; the “% Of inhibition, 18th Day” value is given as 37.53 ± 09.04 %. In addition, in the experiment with Wistar rats (indomethacin 2.5 mg/kg daily, FCA study), the “Body weight index, 21st DAY” value turned out to be 206.38 ± 4.76. In addition, in the experiment with Wistar rats (setting [1]), the “Paw volume, 5th Day” value was 1.81 ± 0.11; the “Paw volume, 12th Day” value is 1.51 ± 0.10; the “Paw volume, 18th Day” value was 1.64 ± 0.13; the “Paw volume, 21st Day” value came to 1.59 ± 0.09. Moreover, the “Body weight index, 1st DAY” value in the experiment on Wistar rats (indomethacin 2.5 mg/kg, FCA study) is on record as 157.85 ± 2.08. Also, the “Total WBC count” value in the experiment with Wistar rats (termination day, FCA model, Indomethacin 2.5 mg/kg) was found to be 17.3±1.63. Besides, the “NO release in Sodium Nitroprusside method” value with nitric oxide is “significantly inhibited”.
